Measured values taken from patent US6362212B1, “Oxime derivative and bactericide containing the same as active ingredient” (Shionogi & Company, Ltd., priority 1994, dated 2002).

How the values were obtained:
Assay type in all cases: in vivo
Pyricularia oryzae = settings: foliage spray on rice seedlings (cv. […]), number of lesions six days after the inoculation
Sphaerotheca fuliginea = test: Controlling effect on Sphaerotheca fuliginea by foliage application (pot experiment); settings: foliage spray on cucumber (cv. TSUKUBASHIROIBO) first leaves, infected area after 10 days in greenhouse at 20° C.
Method in brief: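 First leaves of cucumber seedlings, 2-3 weeks old, were sprayed with compound (DMF solution diluted in water with spreader). They were inoculated 24 h later with a Sphaerotheca fuliginea conidia spray and kept 10 days at 20° C in a greenhouse. Percent control was calculated from infected leaf area.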

[1] = system: Erysiphe graminis f. sp. tritici; test: Controlling effect on Erysiphe graminis f. sp. tritici by foliage application (pot experiment); settings: foliage spray on wheat (cv. NORIN No. 61) seedlings, infected area after 10 days in greenhouse at 20° C.
Method in brief: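 Wheat seedlings (cv. NORIN No. 61, 2-3 weeks old) sprayed with compound in DMF diluted in water with spreader, then inoculated with conidia 24 hours later. Kept in greenhouse at 20 °C for 10 days; percent control calculated from infected leaf area.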

Puccinia coronata = test: Controlling effect on Puccinia coronata by foliage application (pot experiment); settings: foliage spray on oat (cv. PC-38) seedlings, infected area after 1 day moist chamber and 8 days greenhouse at 20° C.
Experimental: The following Test Examples illustrate the effects of the fungicide of the present invention. (I. Controlling effects on various plant diseases by foliage application (pot experiment)) A test compound was dissolved in a small amount of N,N-dimethylformamide, and the solution was diluted to a given concentration with distilled water containing a spreader. Thus, a liquid sample to be tested was prepared. The liquid sample was sprayed to test plants, and 24 hours thereafter, pathogens were inoculated by the method described below. […] The seeds of oat (cv.: PC-38) were sown in plastic cups (each 9 cm in diameter), followed by cultivation for 2 to 3 weeks. The test compound in the form of a solution or suspension was sprayed to the seedlings. Spores of Puccinia coronata cultured on oat leaves were collected, diluted about 10-fold with talc, and sprayed to the test plants to inoculate the plants with the pathogen. After the inoculation, the plants were kept in a moist chamber at 20° C. for 1 day and then in a greenhouse at 20° C. for 8 days. The infected area on the leaf was observed, and the percent control was calculated.

[2] = system: Pseudoperonospora cubensis; test: Controlling effect on Pseudoperonospora cubensis by foliage application (pot experiment); settings: foliage spray on cucumber (var. TSUKUBASHIROIBO) first leaves, lesion area after 10 days in moist chamber at 20° C.
Experimental: The following Test Examples illustrate the effects of the fungicide of the present invention. (I. Controlling effects on various plant diseases by foliage application (pot experiment)) A test compound was dissolved in a small amount of N,N-dimethylformamide, and the solution was diluted to a given concentration with distilled water containing a spreader. Thus, a liquid sample to be tested was prepared. The liquid sample was sprayed to test plants, and 24 hours thereafter, pathogens were inoculated by the method described below. […] The seeds of cucumber (var.: […]) were sown in plastic cups (each 9 cm in diameter), followed by cultivation for 2 to 3 weeks. The test compound in the form of a solution or suspension was sprayed to the surface of their first leaves, and a zoosporangia suspension of Pseudoperonospora cubensis cultured on cucumber leaves was dropped on the above leaf surfaces to inoculate the test plants with the pathogen. After the inoculation, the plants were kept in a moist chamber at 20° C. for 10 days. Then, the area of the lesions around the inoculum were observed and the percent control was calculated.

SMILES	Controlling effect on PYricularia orYzae by foliage application at 500 ppm (percent control) (Pyricularia oryzae)	Controlling effect on Sphaerotheca fuliginea by foliage application at 500 ppm (percent control) (Sphaerotheca fuliginea)	Controlling effect on ErYsiphe graminis f. sp. tritici by foliage application at 500 ppm (percent control) [1] [percent control]	Controllng effect on Puccinia coronata by foliage application at 500 ppm (percent control) (Puccinia coronata)	Controlling effect on Pseudoperonospora cubensis by foliage application at 500 ppm (percent control) [2] [percent control]	pest or weed control at 500 ppm (Sphaerotheca fuliginea; Podosphaera fuliginea, in Cucumis sativus, foliar, 240 h, read-out: Controlling effect on Sphaerotheca fuliginea by foliage application at 500 ppm (percent control)) [%]	pest or weed control at 500 ppm ([1]; Blumeria graminis, foliar, 240 h, read-out: Controlling effect on ErYsiphe graminis f. sp. tritici by foliage application at 500 ppm (percent control)) [%]
CON=C(c1cc(C)on1)c1ccccc1COc1cc(C)ccc1C (mixture of isomers) [Compound No. 436]	70	100	90	90	–	–	–
CON=C(c1ccon1)c1ccccc1COc1ccccc1C (mixture of isomers) [compound 312]	70	100	100	97	–	–	–
CON=C(C1=NOCC1)c1ccccc1COc1cc(C)ccc1C (mixture of isomers) [compound 1236]	97	100	90	97	–	–	–
CON=C(c1cnco1)c1ccccc1COc1ccccc1 (mixture of isomers) [compound 1721]	–	100	90	70	100	–	–
CON=C(c1ccccc1COc1ccccc1C)c1nccn1C (single isomer, unassigned) [112A]	97	100	100	100	97	–	–
CON=C(c1ccccc1COc1cc(C)ccc1C)c1nccn1C (single isomer, unassigned) [136A]	90	100	90	100	–	–	–
CON=C(c1ccccc1COc1cc(C)ccc1C)c1nccn1C (single isomer, unassigned) [136B]	70	100	70	97	–	–	–
CON=C(c1ccno1)c1ccccc1COc1cc(C)ccc1C (single isomer, unassigned) [536B]	70	90	100	97	100	–	–
CON=C(c1cc(C)no1)c1ccccc1COc1cc(C)ccc1C (single isomer, unassigned) [636A, 2-(2,5-dimethylphenoxymethyl)phenyl 3-methylisoxazol-5-yl ketone O-methyloxime]	97	–	–	100	–	97	100
CON=C(c1cc(C)no1)c1ccccc1COc1cc(C)ccc1C (single isomer, unassigned) [636B, 2-(2,5-dimethylphenoxymethyl)phenyl 3-methylisoxazol-5-yl ketone O-methyloxime]	70	100	100	90	–	–	–
CON=C(c1noc(C)n1)c1ccccc1COc1cc(C)ccc1C (single isomer, unassigned) [936A]	97	100	97	90	–	–	–
CON=C(c1nnco1)c1ccccc1COc1ccccc1C [Compound No. 712]	90	100	100	100	–	–	–
CON=C(c1ccccc1COc1ccc(Cl)cc1)n1cncn1 [compound 267]	90	100	97	90	–	–	–
C=CCON=C(c1ccccc1COc1ccccc1)n1cncn1 [compound 278]	–	97	90	90	–	–	–
CON=C(c1nnco1)c1ccccc1COc1ccccc1 [compound 701]	–	100	70	97	100	–	–
CON=C(C1=NCCN1C)c1ccccc1COc1ccccc1C [compound 1112]	97	100	90	70	–	–	–
CON=C(C1=NCCO1)c1ccccc1COc1cc(C)ccc1C [compound 1328]	90	100	90	70	–	–	–
CON=C(C1=NCCN1)c1ccccc1COc1cc(C)ccc1C [compound 1478]	–	70	90	70	–	–	–
